One data set addresses Pho16B (uncultured organism, UniProt A0A3G1QTG4). Put plainly: phosphate release, ammonium molybdate assay at […] nm; Michaelis-Menten fit. Particulars: pH 5.6, 45 °C; printed kcat, Km and kcat/Km do not agree.
The test system of data set [1] is O=[N+]([O-])c1ccc(OP(=O)(O)O)cc1. Put plainly: purified protein. Particulars: pH 5.6, 45 °C, printed kcat, Km and kcat/Km do not agree.

Sequence of Pho16B (A0A3G1QTG4 1-376): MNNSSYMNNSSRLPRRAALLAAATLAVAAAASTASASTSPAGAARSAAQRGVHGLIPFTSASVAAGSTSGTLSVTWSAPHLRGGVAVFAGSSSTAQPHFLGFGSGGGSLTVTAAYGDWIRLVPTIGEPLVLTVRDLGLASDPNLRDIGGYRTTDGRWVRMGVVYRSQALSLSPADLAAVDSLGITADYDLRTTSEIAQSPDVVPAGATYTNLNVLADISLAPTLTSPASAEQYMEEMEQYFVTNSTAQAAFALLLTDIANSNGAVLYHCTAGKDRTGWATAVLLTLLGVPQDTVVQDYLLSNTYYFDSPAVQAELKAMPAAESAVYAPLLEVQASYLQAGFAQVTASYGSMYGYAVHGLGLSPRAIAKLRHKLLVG

As to Naphthyl phosphate, at Pho16B, the Michaelis constant (Km) came out at 966 ± 180 µM.

With Pho16B (uncultured organism), the Km in data set [1] stood at 1026 ± 140 µM.

(Values after PMC6409689, “Characteristics of the First Protein Tyrosine Phosphatase with Phytase Activity from a Soil Metagenome” (Genes, 2019).)
